According to US12054660B2, “Compound, composition, cured substance, optically anisotropic body, optical element, and light guide element” (FUJIFILM Corporation, priority 2021, dated 2024):

Tests used:
Format in all cases: physicochemical
[1] = Evaluation of light resistance of optically anisotropic layer; conditions: rate of change in Re of layer (25 parts compound/75 parts L-1) after xenon irradiation 50 hours, 63° C., 50% RH, oxygen-blocking
Method: (§1) As shown below, the durability of the optically anisotropic layer produced using the composition containing each of the compounds A-1 and A-3 to A-20, and the compounds RA-1 and RA-2 was evaluated.
(§2) A coating composition having the following composition was prepared and applied by spin coating onto a rubbing-treated glass attached with an alignment film.
(§3) The polymerizable liquid crystal compound L-1 is a mixture obtained by mixing at a ratio of the following L-1-1/L-1-2/L-1-3=84/14/2 (in terms of mass ratio).
The produced optically anisotropic layers for light resistance/durability tests were irradiated with light using a Super Xenon Weather Meter SX75 manufactured by Suga Test Instruments Co., Ltd. Using KU-1000100 manufactured by King Seisakusho Co., Ltd. as an ultraviolet ray cut filter, irradiation with 5 million 1× of light was carried out for 50 hours under the oxygen-blocking conditions to carry out a light resistance test. The temperature of the specimen to be tested (the temperature inside the test device) was set to 63° C. The relative humidity in the test device was 50% RH.
The Re of the optically anisotropic layer before and after the light resistance test was measured, the light resistance in a case where the rate of change in Re described below was less than 10% was evaluated as A, and the light resistance in a case where the rate of change in Re was 10% or more was evaluated as B. The smaller the rate of change in Re, the more excellent the light resistance.
(§4) Re is an in-plane retardation. Rate of change in Re (%)=[100×{|(Re after test)−(Re before test)|}/(Re before test)]
(§5) Re was measured with Axoscan manufactured by Axometrics, Inc. at a wavelength of 550 nm, and the measurement temperature was set to room temperature.

[2] = Evaluation of liquid crystallinity (hot stage, polarization microscope); design: key: A case of having liquid crystallinity was evaluated as A; a case of having no liquid crystallinity was evaluated as B; conditions: heated on a hot stage
From the text: As a specific observation method, optical anisotropy and fluidity derived from the liquid crystal phase can be checked by carrying out an observation under a polarization microscope while heating or lowering the temperature of the compound with a hot stage or the like.
The respective compounds of Examples and Comparative Examples (the compounds A-1, A-3 to A-20, and the compounds RA-1 and RA-2) were heated on a hot stage and observed with a polarization microscope, and the phase transition temperature was measured to evaluate the presence or absence of liquid crystallinity. A case of having liquid crystallinity was evaluated as A, and a case of having no liquid crystallinity was evaluated as B. The results are shown in Table 1.

[3] = Evaluation of durability (moisture-heat resistance test) of optically anisotropic layer; conditions: rate of change in Re of layer (25 parts compound/75 parts L-1) after 136 hours at 100° C., 95% RH
Method: as §1, §2, §3, §4, §5
The produced optically anisotropic layer was allowed to be left for 136 hours at 100° C. and a relative humidity of 95% RH, whereby a moisture-heat resistance test was carried out. The rate of change in Re before and after the durability test was evaluated, the durability in a case where the rate of change in Re was less than 10% was evaluated as A, and the durability in a case where the rate of change in Re was 10% or more was evaluated as B. The smaller the rate of change in Re, the more excellent the durability.

[4] = Evaluation of solubility in methyl ethyl ketone; conditions: precipitation concentration in methyl ethyl ketone at room temperature (25° C.)
Method: The solubility of each of the compounds of Examples and Comparative Examples (the compounds A-1, A-3 to A-20, and the compounds RA-1 and RA-2) in methyl ethyl ketone was evaluated. A solution in which the compound was ultrasonically dissolved or dissolved by heating was produced.

[5] = Measurement of Δn (refractive index anisotropy), wedge-shaped liquid crystal cell; conditions: 550 nm, 30° C. or lower limit temperature of nematic phase+0 to 10° C.; some extrapolated from 1/2 mixture with L-1-1
Method: The Δn of each of the compounds of Examples and Comparative Examples (the compounds A-1, A-3 to A-20, and the compounds RA-1 and RA-2), which are the compounds to be measured, was measured by a method using a wedge-shaped liquid crystal cell described on page 202 in the Liquid crystal handbook (edited by the liquid crystal handbook editorial board, published by Maruzen Co., Ltd., 2000). An was defined as a measured value at a wavelength of 550 nm at 30° C. or the lower limit temperature of the nematic phase+0° C. to 10° C. In a case of a compound which is liable to crystallize or a compound having no liquid crystallinity, evaluation was carried out using a mixture thereof with the other liquid crystal compound, and Δn was estimated from the extrapolated value of the measured value thereof. The following L-1-1 was used as the other liquid crystal compound. As the above mixture, a mixture obtained by mixing at a ratio of the compound to be measured/the L-1-1=1/2 (in terms of mass ratio) was used.
A case where Δn was 0.35 or more was evaluated as A, a case where Δn was 0.32 or more and less than 0.35 was evaluated as B, a case where Δn was 0.30 or more and less than 0.32 was evaluated as C, and a case where Δn was less than 0.30 was evaluated as D. The results are shown in Table 1.

SMILES	Light resistance [1]	Liquid crystallinity [2]	Durability [3]	Solubility [4]	Δn [5]
C=CC(=O)OCCSc1ccc(C#Cc2ccc(COc3ccc(OCc4ccc(C#Cc5ccc(SCCOC(=O)C=C)cc5)cc4)c(C(=O)OC)c3)cc2)cc1 [Compound A-14]	A (the light resistance in a case where the rate of change in Re described below was less than 10% was evaluated as A)	A	A (the durability in a case where the rate of change in Re was less than 10% was evaluated as A)	B (the solubility in a case where the precipitation concentration was less than 10% by mass was evaluated as B)	A (A case where Δn was 0.35 or more was evaluated as A)
C=CC(=O)OCCSc1ccc(C#Cc2ccc(COc3ccc(C#Cc4ccc(SCCOC(=O)C=C)cc4)cc3C(=O)OC)cc2)cc1 [Compound A-3]	A (the light resistance in a case where the rate of change in Re described below was less than 10% was evaluated as A)	A	A (the durability in a case where the rate of change in Re was less than 10% was evaluated as A)	A (the solubility in a case where the precipitation concentration was 10% by mass or more was evaluated as A)	A (A case where Δn was 0.35 or more was evaluated as A)
C=CC(=O)OCCSc1ccc(C#Cc2ccc(COc3ccc(C#Cc4ccc(SCCOC(=O)C=C)cc4)cc3C)cc2)cc1 [Compound A-6]	A (the light resistance in a case where the rate of change in Re described below was less than 10% was evaluated as A)	A	A (the durability in a case where the rate of change in Re was less than 10% was evaluated as A)	A (the solubility in a case where the precipitation concentration was 10% by mass or more was evaluated as A)	A (A case where Δn was 0.35 or more was evaluated as A)
C=CC(=O)OCCSc1ccc(C#Cc2ccc(SCc3ccc(C#Cc4ccc(SCCOC(=O)C=C)cc4)c(OC)c3)cc2)cc1 [Compound A-5]	A (the light resistance in a case where the rate of change in Re described below was less than 10% was evaluated as A)	B	A (the durability in a case where the rate of change in Re was less than 10% was evaluated as A)	A (the solubility in a case where the precipitation concentration was 10% by mass or more was evaluated as A)	A (A case where Δn was 0.35 or more was evaluated as A)
CC(=O)OCCSc1ccc(C#Cc2ccc(CSc3ccc(C#Cc4ccc(CCOC(C)=O)cc4)cc3)cc2C)cc1 [Compound A-1]	A (the light resistance in a case where the rate of change in Re described below was less than 10% was evaluated as A)	B	B (the durability in a case where the rate of change in Re was 10% or more was evaluated as B)	A (the solubility in a case where the precipitation concentration was 10% by mass or more was evaluated as A)	A (A case where Δn was 0.35 or more was evaluated as A)
CC(=O)OCCSc1ccc(C#Cc2ccc(OCc3ccc(C#Cc4ccc(COc5ccc(C#Cc6ccc(SCCOC(C)=O)cc6)cc5C)cc4)cc3)c(C)c2)cc1 [Compound A-15]	A (the light resistance in a case where the rate of change in Re described below was less than 10% was evaluated as A)	A	B (the durability in a case where the rate of change in Re was 10% or more was evaluated as B)	B (the solubility in a case where the precipitation concentration was less than 10% by mass was evaluated as B)	A (A case where Δn was 0.35 or more was evaluated as A)
